Results from patent EP0133795B1 (THE McLEAN HOSPITAL CORPORATION, priority 1983, dated 1985).

Key:
[1] = tested on: general motor activity of mice; experiment: General locomotor activity of mice (Stoelting electronic activity monitor); format: in vivo, Balb/c mice
Method: The effect of intraperitoneal (i.p.) injections of test compounds on the general motor activity of mice during a 60-min period was determined in a Stoelting electronic activity monitor. Dose-response curves were obtained from which the half-maximally effective values were calculated and the results are shown in Table V.
The compounds were dissolved in 25% (vols.) propylene glycol in water and injected i.p. into Balb/c mice (18-24 g). Dose-response measurements were obtained for 6 animals per dose or time point. Activity was monitored for 60 min using a Stoelting Electronic Activity Monitor (EAM) apparatus to assess the general motor activity of the animals.
The general locomotor activity of mice was measured in the Stolting activity monitor apparatus during 60 min after an intraperitoneal (i.p.) injection of a test compound.

[2] = Comparative brain/liver uptake of 14C-labeled compounds (Brain Penetration Index)
Method: The criterion used herein for measuring the extent to which a compound, from which the radical A is derived, crosses the blood-brain barrier is based on the uptake of this compound by the brain relative to its uptake by the liver. […] Measurements of the quantity of a compound present in brain and liver at 5 minutes after a subcutaneous (s.c.) injection were used to calculate a Brain Penetration Index (BPI), with the equation: [formula]
This is the amount of the compound present per gram of brain tissue as a percent of the amount per gram of liver tissue.
This procedure has the advantage that even for a sparingly soluble lipid ester, which tends to remain largely at the site of the injection and slowly diffuse into the circulation, its level in the liver will reflect the amount available rather than the initial dose injected.
The uptake of a ^14C-labeled compound into brain was compared with the uptake into liver of the same animal.
All determinations were carried out at 5 min after injection. The volumes of the injected doses into mice (body weight, 18-24 g) for the i.v., i.p., and s.c. doses were 0.15, 0.3 and 0.5 ml, respectively. […] Each tissue was homogenized in 8 ml of pyridine in a glass homogenizer.
Each labeled test compound was injected as a solution in 0.5 ml of saline (Compound 7) or in 25% propylene glycol in water (Compounds 1, 5, 6) subcutaneously (s.c.) into young adult Balb/c mice (18-24 g body weight). After 5 min (or longer) animals were sacrificed and the brain and liver removed, weighed and homogenized respectively in 8 ml and 10 ml of brain protein solvent (1 % (w/v) sodium dodecyl sulfate in 6 M urea and 19 mM EDTA, pH 7.4, 0.03 M phosphate). Aliquots (0.5 ml) of the homogenates were mixed with 10 ml of Aquasol 2 (New England Nuclear) and counted in a Beckman liquid scintillation counter. The total uptake of each compound per g brain and liver tissue was calculated. The proportion of uptake into brain as compared to liver (100%) of the same animal was designated as the Brain Penetration Index (BPI), expressed as a percentage typically at 5 min after injection.
Each of the ^14C-labeled Compounds 26, 28 and 30 were in 125 µl of the propylene glycol diluted with water up to 0.5 ml, and then injected subcutaneously into test Balb/c mice (20 ± 2 g weight). After 5 min the animals were sacrificed and the brain and liver were removed, weighed and homogenized in 8 ml and 10 ml of brain protein solvent, respectively. Next 0.5 ml aliquots were mixed with 10 ml of Aquasol 2 (New England Nuclear Corp., Boston, MA) and counted in a Beckman liquid scintillation counter. The data for the label in each tissue were used to calculate the total quantity of the compound present in brain and liver per gram of tissue. The ratio of the amount in brain as a percent of that present in liver at 5 min was taken as the Brain Penetration Index (BPI). Measurements at longer uptake times were also obtained to evaluate the accumulation of the compounds in the brain.

[3] = tested on: bicuculline-induced epileptic seizures; experiment: Delay of onset of bicuculline-induced seizures (anticonvulsant activity); format: in vivo, mouse; settings: graded 0-5
Method: In a second behavioral test, the ability of a substance to prevent or delay the onset of biculline-induced epileptic seizures was measured. […] At 24 hr after i.p. injection of the cholesteryl derivative at a dose of 30 mg/kg (64 pmol/kg), the onset of seizures was delayed by 30% after an acute i.p. injection of bicuculline at 0.3 mg/kg. […] The dexamethasone and butyl esters had no effect.
The compounds were also injected i.p. at 1, 6 and 24 hr before the administration of bicuculline (0.3 mg/kg) s.c. The latency to the onset of generalized tonic-clonic epileptic seizures and the protection against the lethality of bicuculline were measured and evaluated as a percent of the data for vehicle-injected controls. No significant changes were obtained at the 1 hr and 6 hr time points. At the 24 hr time, however, some compounds delayed while others accelerated the onset of seizures.
The effect of the compound to delay the onset of a bicuculline-induced seizures was evaluated.
The ability of a substance to delay the onset of bicuculline-induced epileptic seizures in the mouse was measured (Table X). […] At 24 hr after i.p. injection of the cholesteryl derivative (6) at a dose of 30 mg/kg (64 pmol/kg), the onset of seizures was delayed by 30% (as compared to saline controls) after an acute i.p. injection of bicuculline at 0.3 mg/kg. […] The dexamethasone and butyl esters had no effect on seizures in mice.

[4] = tested on: CAI pyramidal cells; format: cell-based, Sprague-Dawley rats
Method: Transverse slices of hippocampus (350-375 µm thick) were prepared from Sprague-Dawley rats (200-300 g) and transferred onto a nylon net fixed over a 1.5 ml superfusion chamber. The slices were maintained at 32-33°C in a humidified atmosphere of 95%/5% 02/C02. The standard medium consisted of (in mM): NaCl, 125; KCI, 3.5; CaC12,2; MgS04, 1.5; NaH2PO4, 1; NaHC03, 24; and glucose, 10. Low chloride medium was prepared by substituting sodium isethionate for sodium chloride.
Extracellular potentials were recorded with NaCI-fitted micropipettes, and stimulus pulses were applied through bipolar platinum wire electrodes. The various drugs were dissolved in fresh medium (without glucose and phosphate) and applied to the surface of the tissue by pressure ejection from a micropipette, Sakai, Swartz and Woody, (1979).
The inhibitory effectiveness of various compounds was investigated by measuring their ability to suppress the extracellular population spike recorded from the hippocampal CAI pyramidal layer and elicited by stimulation of stratum radiatum axons. The amplitude of this monosynaptic population spike is essentially proportional to the number of pyramidal cells discharging in response to a stimulus volley, Andersen, Bliss and Skrede, (1971).
The various compounds were applied as droplets to the pyramidal layer approximately 75 µm from the recording electrode. The volume of a single drug application was about 300 picoliters. […] The volume ejected from each pipette was calibrated prior to use by measuring the diameter of the ejected droplet and adjusting the duration of the pressure pulse (usually 100-500 msec) until a standard diameter was reached. A constant droplet volume was used throughout the experiments. Where dose-response information was required, several pipettes with different drug concentrations were used.

[5] = tested on: general motor activity of mice; experiment: General locomotor activity of mice (Stoelting electronic activity monitor); format: in vivo, Balb/c mice; settings: 500 µg administered intracisternally directly into the cerebrospinal fluid
[6] = tested on: general motor activity; settings: systemically injected doses of up to 1 g/kg (9.7 mmol/kg); previous experiments; cited from earlier work
[7] = Table VI, 270 μmol/kg s.c., 5 min, Balb/c mice

In the case of `NCCCC(=O)O` [GABA, gamma-aminobutyric acid, reference compound], the “effect on general motor activity” value ([1]; 1.94 mmol/kg, i.p.) is reported as “no significant effect”, the “effect on general locomotor activity” value ([1]; dose of 9.7 mmol/kg (1 g/kg)) is reported as “no significant effect” and the “(BRAIN)” value ([2]; 30 μmol/kg i.v., 5 min, mouse) is reported as 0.04 nmol/g. The “(LIVER)” value ([2]; 30 μmol/kg i.v., 5 min, mouse) was 4.2 nmol/g, the “BPI (5 min)” value ([2]; 30 μmol/kg i.v., 5 min, mouse) was 0.95% and the “(BRAIN)” value ([2]; 60 μmol/kg i.p., 5 min, mouse) was 0.23 nmol/g. For the same compound, the “(LIVER)” value ([2]; 60 μmol/kg i.p., 5 min, mouse) was 29 nmol/g, the “BPI (5 min)” value ([2]; 60 μmol/kg i.p., 5 min, mouse) was 0.80% and the “(BRAIN)” value ([2]; 120 μmol/kg i.p., 5 min, mouse) was 0.45 nmol/g. For the same compound, the “(LIVER)” value ([2]; 120 μmol/kg i.p., 5 min, mouse) was 46 nmol/g, the “BPI (5 min)” value ([2]; 120 μmol/kg i.p., 5 min, mouse) was 1.00% and the “(BRAIN)” value ([2]; 160 μmol/kg i.p., 5 min, mouse) was 0.66 nmol/g. For the same compound, the “(LIVER)” value ([2]; 160 μmol/kg i.p., 5 min, mouse) was 71 nmol/g, the “BPI (5 min)” value ([2]; 160 μmol/kg i.p., 5 min, mouse) was 0.93% and the “(BRAIN)” value ([2]; 210 μmol/kg i.p., 5 min, mouse) was 0.83 nmol/g. For the same compound, the “(LIVER)” value ([2]; 210 μmol/kg i.p., 5 min, mouse) was 83 nmol/g, the “BPI (5 min)” value ([2]; 210 μmol/kg i.p., 5 min, mouse) was 1.00% and the “(BRAIN)” value ([2]; 270 μmol/kg s.c., 5 min, mouse) was 1.03 nmol/g. For the same compound, the “(LIVER)” value ([2]; 270 μmol/kg s.c., 5 min, mouse) was 104 nmol/g, the “BPI (5 min)” value ([2]; 270 μmol/kg s.c., 5 min, mouse) was 1.00% and the “(BRAIN)” value ([2]; 380 μmol/kg s.c., 5 min, mouse) was 1.81 nmol/g. For the same compound, the “(LIVER)” value ([2]; 380 μmol/kg s.c., 5 min, mouse) was 165 nmol/g, the “BPI (5 min)” value ([2]; 380 μmol/kg s.c., 5 min, mouse) was 1.10% and the BPI ([2]; Table IX summary, 5-min Brain Penetration Index) was 1. The “(BRAIN)” value [2, 7] was 1.03 nmol/g, the “(LIVER)” value [2, 7] was 104 nmol/g and the BPI ([2]; Table VI, 270 μmol/kg s.c., 5 min, Balb/c mice, mean ± S.E.M.) was 1±.09%. For the same compound, the “In Vivo Delay of Time of Onset of Bicuculline-induced seizures” value [3] was 0, the “effect after incubation of slices in PMSF (0.5 mM) for about 45 min” value [4] was “no change” and the “effect with picrotoxin (10 µM) in the medium or low chloride medium” value [4] was “little effect”. For the same compound, the “recovery of the population spike amplitude to 90% of the pre-droplet control value” ([4]; after an approximately half-maximal dose) was 1 to 2 min, the “time until recovery was usually complete” value ([4]; after droplet application) was 2 to 3 min and the “effect on general motor activity” value [5] was “no significant effect”. For the same compound, the “effect on motor activity in rats” value [6] was “little effect”.
